Measured values from patent US12466801B2, “Cannabichromene derivatives and use thereof” (Remedy Processors LLC, priority 2023, dated 2025).

Legend:
cancer cell lines = test: National Cancer Institute (NCI) 60 cell cancer screen, growth inhibition; assay type: cell-based; settings: multiple dose study (dose-response); leukemia, non-small cell, colon, CNS, melanoma, ovarian, renal, prostate, breast cancer cell lines (FIGS. 3-11)
Protocol: (§1) A multiple dose study (dose-response) was then performed using Compound 8 across multiple cancer cell lines. […] A multiple dose study (dose-response) was then performed in PC3 cells using Compound 9. […] (See FIG. 2) The data was generated according to the National Cancer Institute (NCI) 60 cell cancer screen.

[1] = test system: prostate cancer PC3 cells; test: NCI 60 cell cancer screen, multiple dose study (dose-response) in PC3 cells; assay type: cell-based; settings: FIG. 2
Protocol: FIG. 2 provides data from a multiple dose study (dose-response) performed in prostate cancer PC3 cells.
as §1

[2] = biological target: dopamine transporter (DAT) (Homo sapiens, UniProt Q01959); test: CNS receptor testing, affinity at dopamine transporter; assay type: binding; settings: for affinity and selectivity for the dopamine transporter (DAT): result in words
dopamine transporter (DAT), sequence (Q01959 whole entry, species assumed): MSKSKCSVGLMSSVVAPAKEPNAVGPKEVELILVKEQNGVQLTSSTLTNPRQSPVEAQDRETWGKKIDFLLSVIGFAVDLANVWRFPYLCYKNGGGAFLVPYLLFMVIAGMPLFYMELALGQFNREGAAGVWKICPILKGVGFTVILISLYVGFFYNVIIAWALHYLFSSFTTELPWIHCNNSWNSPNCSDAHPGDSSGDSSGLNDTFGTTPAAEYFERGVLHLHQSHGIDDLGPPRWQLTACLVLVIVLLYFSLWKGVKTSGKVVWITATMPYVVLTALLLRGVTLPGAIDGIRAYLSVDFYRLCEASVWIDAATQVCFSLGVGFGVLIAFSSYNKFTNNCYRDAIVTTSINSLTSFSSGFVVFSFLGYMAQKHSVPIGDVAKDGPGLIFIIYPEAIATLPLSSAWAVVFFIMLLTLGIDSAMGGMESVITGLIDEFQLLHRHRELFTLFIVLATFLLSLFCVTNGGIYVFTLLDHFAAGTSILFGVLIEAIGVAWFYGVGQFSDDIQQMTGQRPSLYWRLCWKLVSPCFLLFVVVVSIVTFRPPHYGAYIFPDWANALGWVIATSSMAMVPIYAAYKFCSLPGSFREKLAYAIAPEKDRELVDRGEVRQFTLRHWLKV
Protocol: The compounds were tested for affinity at various central nervous system receptors.

Row | SMILES | growth inhibition across multiple cancer cell lines (cancer cell lines) | growth inhibition of PC3 cells [1] | Ki [2] | affinity and selectivity for the dopamine transporter (DAT) [2]
1 | CCCCCc1cc(NC(=O)C(Cl)Cl)c2c(c1)OC(C)(CCC=C(C)C)C=C2 (stereo not drawn) [Compound 8] | provided growth inhibition |  |  | 
2 | CCCCCc1cc(NC(=O)CC(F)(F)F)c2c(c1)OC(C)(CCC=C(C)C)C=C2 (stereo not drawn) [Compound 9] |  | inhibits the growth |  | 
3 | CCCCCc1cc(NC(=O)C(F)(F)Br)c2c(c1)OC(C)(CCC=C(C)C)C=C2 (stereo not drawn) [Compound 10] |  |  | 0.085 µM | good affinity and selectivity
4 | CCCCCc1cc(NC(=O)CCCC)c2c(c1)OC(C)(CCC=C(C)C)C=C2 (stereo not drawn) [Compound 12] |  |  | 0.107 µM | good affinity and selectivity
